Where two headings read alike, the source gives them in different places. Bounds are passed on as bounds.

The values below come from publication PMC7795089, “Antimalarials and Phytotoxins from Botryosphaeria dothidea Identified from a Seed of Diseased Torreya taxifolia” (Molecules, 2020).

The nature of series [1]: In vitro cytotoxicity assay (neutral red), Vero cells. The format is cell-based. To be noted: African green monkey, Vero cells (kidney fibroblasts). The procedure: (§1) Cells were seeded to the wells of a 96-well plate at a density of 25,000 cells/well and incubated for 24 h. Samples at different concentrations were added and plates were again incubated for 48 h. The number of viable cells was determined by using neutral red dye and IC50 values were obtained from dose response curves. Doxorubicin was used as a positive control.

Series [2] has as its system Plasmodium falciparum D6 (chloroquine-sensitive) strain. Put plainly: In vitro antiplasmodial assay, chloroquine-sensitive (D6) clone. The class given is cell-based. As to conditions: for IC50: Plasmodium falciparum.
In series [3] the test system is Plasmodium falciparum W2 (chloroquine-resistant) strain. Briefly: microbe, parasite or virus in culture. The class given is cell-based. As to conditions: for IC50: Plasmodium falciparum.
Series [4] has as its system Bacillus subtilis. Also noted: method as in PMID 30935798. As to conditions: enantiomers and racemate of compound 2; cited from earlier work.
In series [5] the test system is human leukemia HL-60 cells. Also noted: method as in PMID 30935798. To be noted: enantiomers and racemate of compound 2; comparable to positive control irinotecan; cited from earlier work.
Series [6] is described as follows: In vitro cytotoxicity assay (neutral red), SK-OV-3. The class given is cell-based. To be noted: human, SK-OV-3 cells (ovarian carcinoma), 48 h incubation, read-out: Cytotoxic activity IC50, SK-OV-3. Here is the method:
as §1

A short description of series [7]: In vitro cytotoxicity assay (neutral red), SK-MEL. To be noted: human, SK-MEL cells (malignant melanoma), 48 h incubation, read-out: Cytotoxic activity IC50, SK-MEL. The class given is cell-based. The procedure:
as §1

Series [8] is described as follows: In vitro cytotoxicity assay (neutral red), KB. The format is cell-based. As to conditions: human, KB cells (oral epidermal carcinoma), 48 h incubation, read-out: Cytotoxic activity IC50, KB. Here is the method:
as §1

Series [9] can be described thus: In vitro cytotoxicity assay (neutral red), LLC-PK11. The class given is cell-based. As to conditions: pig, 48 h incubation, read-out: Cytotoxic activity IC50, LLC-PK11. The procedure:
as §1

The nature of series [10]: In vitro cytotoxicity assay (neutral red), BT-549. The class given is cell-based. To be noted: human, BT-549 cells (breast ductal carcinoma), 48 h incubation, read-out: Cytotoxic activity IC50, BT-549. The procedure: as §1
The subject of series [11] is Plasmodium. Also noted: method as in PMID 32043422. As to conditions: cited from earlier work.
[12] abbreviates: D6, read-out: Chloroquine-Sensitive (D6)-Clone IC50.
The mark [13] stands for this setting: W2, read-out: Chloroquine-Resistant (W2)-Clone IC50.

One may read the IC50 as the midpoint of a concentration-inhibition curve. As for `C[C@@H]1CC[C@H]2[C@@H](C)C(=O)O[C@@H]3O[C@@]4(C)CC[C@@H]1[C@]32OO4` [Artemisinin], the IC50 at 48 h in series [1] is greater than 4.76 µg/mL.
Consider `CCN(CC)CCCC(C)Nc1ccnc2cc(Cl)ccc12` (stereo not shown) [Chloroquine], for which the concentration for half-maximal inhibition (IC50) in series [2] (setting [12]) was 0.016 µg/mL; in [2] (D6, read-out: Chloroquine-Sensitive (D6)-Clone IC50 (µM, in parentheses)), 0.03 µM; in series [3] (setting [13]), 0.16 µg/mL; in [3] (W2, read-out: Chloroquine-Resistant (W2)-Clone IC50 (µM, in parentheses)), 0.31 µM. This compound also came in with an IC50 at 48 h in [1] greater than 4.76 µg/mL.
In the case of `CC1=CC(=O)C2(OC2C(=O)CC(C)C)C(=O)N1` (stereo not shown) [Compound 2, flavipucine], in [4], the “antibacterial activity against Bacillus subtilis” value is reported as “moderate antibacterial activity”. In addition, the “cytotoxic activity against human leukemia HL-60 cells” value in [5] is reported as “strong cytotoxic activity”.
Turning to `C\C=C(/C=C(C)/C=C/CC/C=C(\C)C(=O)C1=CC(C)(OC)NC1=O)C(=O)OC` (stereo not shown) [Compound 3, dothilactaene A], in series [2] (P. falciparum D6, concentration causing 50% growth inhibition, highest concentration tested […]), the “Chloroquine-Sensitive (D6)-Clone IC50” value was “inactive”. Also, the IC50 in [2] (setting [12]) and in series [3] (setting [13]) was greater than 4.76 µg/mL throughout. Also, in series [3] (P. falciparum W2, concentration causing 50% growth inhibition, highest concentration tested […]), the “Chloroquine-Resistant (W2)-Clone IC50” value is “inactive”. In series [1], this compound showed an IC50 at 48 h greater than 4.76 µg/mL.
Regarding `COc1cccc2c1C(=O)c1c(O)c3c(c(O)c1C2=O)C[C@@](O)(C(=O)CO)C[C@@H]3O[C@H]1C[C@H](N)[C@H](O)[C@H](C)O1` [Doxorubicin], the IC50 at 48 h was determined as 1470 nM in [6]; 1290 nM in series [7]; 2120 nM in series [8]; 1280 nM in series [9]; 1830 nM in series [10].
Consider `C\C=C(/C=C(C)/C=C/C=C/C=C(\C)C(=O)[C@H]1C(=O)N[C@]2(O)CCO[C@H]12)C(=O)OC` [lucilactaene], for which the antiplasmodial activity result in series [11] was “potent antiplasmodial activity”.
